Legend:
[1] = Intravenous bolus pharmacokinetics; format: in vivo, Rat; conditions: rat, plasma, Intravenous bolus, 0.5 mg/kg nominal dose; for AUC: iv, 0.5 mg/kg, read-out: Rat IV AUC; for clearance: read-out: Rat IV CL
From the text: Following intravenous administration of a single bolus dose, Compound 1 had low systemic clearance and a long half-life in all species tested. […] The volume of distribution was greater than the total body water, indicating distribution of Compound 1 to tissues.

[2] = Oral pharmacokinetics / bioavailability; format: in vivo, Rat; conditions: rat, in vivo, Oral gavage, 3 mg/kg nominal dose, vehicle 0.2%MC/1%SLS; for AUC: read-out: Rat PO AUC; for Cmax: read-out: Rat PO Cmax
From the text: The bioavailability in monkey (greater than 100%) may be explained by the tenfold difference between the IV and oral doses. Compound 1 was rapidly absorbed in all species, with maximum systemic concentration observed within approximately one to three hours of dosing.

[3] = test system: collagen-induced arthritis (CIA); experiment: therapeutic mouse collagen-induced arthritis (CIA) model; format: in vivo; set-up: Histopathology Summed Score, Knees / Therapeutic Paw Score AUC / Histopathology Summed Score, Six Joints / Histopathology Summed Score, Paws: scale not given here; conditions: Fostamatinib 30 mg/kg BID
Procedure: Compound 1 was tested in the therapeutic mouse collagen-induced arthritis (CIA) model at 2.5 mg/kg BID (5 mg/kg/day), 5 mg/kg BID (10 mg/kg/day) or 10 mg/kg BID (20 mg/kg/day). Fostamatinib, a Syk small molecule inhibitor used as a reference standard, was dosed orally at 30 mg/kg BID (60 mg/kg/day). Compounds were dosed for 10 days in a 12/12-hour BID dosing regimen until the end of the study. Compound 1 was formulated in 0.2% MC, 1% SLS. Dosing volume was 10 mL/kg. Terminal plasma samples were collected at 2, 4 and 12 hours post last dose. All four paws and both knees were collected and processed for histopathology.

CYP1A2 = CYP1A2 Induction in Human Hepatocytes; format: in vitro ADME; conditions: 50 μM Omeprazole
Procedure: CYP activity was determined by monitoring metabolite formation of specific CYP probe substrates (phenacetin for CYP1A2 and testosterone for CYP3A4) using LC-MS/MS. CYP messenger ribonucleic acid (mRNA) was analyzed by RT-PCR to confirm CYP induction potential.

CCOc1cncc(-c2cc(C)c3c(n2)C(C)(C)N(c2cnn(CC(F)F)c2)C3=O)c1 [B, reference compound]
AUC [1]: 0.33 µg·h/mL | clearance [1]: 1.32 L/h/kg | AUC [2]: 0.6 µg·h/mL | Cmax [2]: 0.12 µg/mL

Cc1cc(-c2cncc(OCC(F)F)c2)nc2c1C(=O)N(c1cnn(CC(F)F)c1)C2(C)C [C, reference compound]
AUC [1]: 0.59 µg·h/mL | clearance [1]: 0.66 L/h/kg | AUC [2]: 3 µg·h/mL | Cmax [2]: 0.2 µg/mL

COc1cncc(-c2cc(C)c3c(n2)C(C)(C)N(c2cnn(CC(F)F)c2)C3=O)c1 [Compound A, reference compound]
AUC [1]: 0.22 µg·h/mL | clearance [1]: 1.32 L/h/kg | AUC [2]: 0.3 µg·h/mL | Cmax [2]: 0.06 µg/mL

Cc1cc(-c2cncc(OCC(F)(F)F)c2)nc2c1C(=O)N(c1cnn(CC(F)F)c1)C2(C)C [D, reference compound]
AUC [1]: 1.2 µg·h/mL | clearance [1]: 0.42 L/h/kg | AUC [2]: 9 µg·h/mL | Cmax [2]: 0.5 µg/mL

COc1cc(Nc2ncc(F)c(Nc3ccc4c(n3)N(COP(=O)(O)O)C(=O)C(C)(C)O4)n2)cc(OC)c1OC [Fostamatinib, reference compound]
clinical arthritis scores, therapeutic paws (FIG. 2), significantly reduced [3]: not | reduction of arthritis scores AUC, prophylactic paws only [3]: 32% | reduction of clinical arthritis scores AUC vs vehicle, all paws [3]: 25% | All Paw Score AUC ([3]; 10 days): *23.61 | Histopathology Summed Score, Knees ([3]; 10 days): 8.90 | Histopathology Summed Score, Paws ([3]; 10 days): 10.25 | Histopathology Summed Score, Six Joints ([3]; 10 days): 9.80 | Prophylactic Paw Score AUC ([3]; 10 days): *48.30 | Therapeutic Paw Score AUC ([3]; 10 days): 46.15 | Arthritis scores measured daily, all paws (FIG. 1) ([3]; *d2-11, vs vehicle): significantly reduced toward normal | clinical arthritis scores, prophylactic paws (FIG. 3) ([3]; *d5-9): significantly reduced

COc1ccc2[nH]c([S+]([O-])Cc3ncc(C)c(OC)c3C)nc2c1 (stereo not drawn) [Omeprazole, reference compound]
CYP1A2 mRNA message (CYP1A2; lot 8123): 118.0 fold change | Phenacetin O-Dealkylation (CYP1A2; lot 8123): 25.7 fold change | CYP1A2 mRNA message (CYP1A2; lot LMP): 71.5 fold change | Phenacetin O-Dealkylation (CYP1A2; lot LMP): 36.3 fold change | CYP1A2 mRNA message (CYP1A2; lot YOW): 83.6 fold change | Phenacetin O-Dealkylation (CYP1A2; lot YOW): 17.9 fold change

From patent publication US10301304B2, “Selective inhibitor of phosphatidylinositol 3-kinase-gamma” (VERTEX PHARMACEUTICALS INCORPORATED, priority 2013, dated 2019)
